In patent publication US20260184773A1, “THERAPEUTIC SINGLE DOMAIN ANTIBODY” (priority 2021, published 2026):

Columns and labels:
KRAS = KRAS (Homo sapiens, UniProt P01116); assay: KRAS GTPase activity (GTPase-Glo luminescence); conditions: dilution series
Bx-PC3 = assay: MTT assay
PANC-1 = assay: MTT assay
[1] = biological target: Human KRAS Wildtype protein (Homo sapiens, UniProt P01116); assay: Biacore 3000 binding affinity
MCF-7 = assay: MTT assay
ENBOV (Ebola) in HFF = format: cell-based, Ebola virus; conditions: HFF, ENBOV (Ebola)
phosphorylated STAT3 = biological target: T1, phosphorylated STAT3 (Homo sapiens, UniProt P40763); assay: Immunoprecipitation from cell lysates, Western blot; format: binding; conditions: Dynabeads preloaded with SBT-100, 1 hour at 4° C.
T1 construct: endogenous in cells; host or cells: HeLa + IFN-γ (P-STAT3 lane); also PANC-1, DU145, PC-3 and 4T1 (mouse)
Description: It has been previously shown that SPT-100 can bind unphosphorylated STAT3. […] Bound proteins were separated by SDS-PAGE followed by Western blot analysis using STAT3 (79D7) rabbit mAb #4904.

HT-1080 = assay: MTT assay
TC83 in U87MG = format: cell-based, Venezuelan Equine Encephalitis (TC83) virus
BT474 = assay: MTT assay
[2] = test system: VEGF production by retinal epithelial cells (ARPE-19)
[3] = test system: tSTAT3, pSTAT3 and PD-L1 in MDA-MB-231 cells; assay: Immunoblot (slot blot) of tSTAT3, pSTAT3 and PD-L1; format: cell-based, human; conditions: MDA-MB-231, 3, 6 and 24 hours, β-actin normalized, 50-100 ug/ml
MDA-M-453 = assay: MTT assay
[4] = mouse, in vivo
12-Lipoxygenase = assay: Binding to irrelevant antigen
TC83 in BE3M27 = format: cell-based, Venezuelan Equine Encephalitis (TC83) virus
TC83 in HeLa = format: cell-based, Venezuelan Equine Encephalitis (TC83) virus
[5] = test system: B7-H3, OX-2 and PD-L1 on SJSA-1 osteosarcoma cells; assay: Flow cytometry of checkpoint molecule cell surface expression; format: cell-based, human
Description: Cells were then harvested and stained with the following antibodies: CD276 (Clone MIH-42, Biolegend), CD274 (Clone 29E.2A3, Bilegend), and CD200 (Clone OX-104, Bilegend). Upon staining, samples were run through a BD Celesta Flow Cytometer and data were analyzed using FlowJo software.
Checkpoint molecules are expressed on the surface of tumor cells and ultimately stifle the functioning of activated of T cells, contributing to the immunosuppressive tumor microenvironment. Inflammatory cytokines such as IL-6 and IFN-γ drive the expression of checkpoint molecules such as PD-L1 (CD274), B7-H3 (CD276), and OX-2 (CD200). […] B7-H3 decreased by approximately 3-fold, OX-2 decreased by approximately 4-fold, and PD-L1 decreased by approximately 4-fold. […] Interferon (IFN)-y is known to induce PD-L1 expression and both the intracellular and membrane staining increased following treatment with IFN-γ (data not shown).

PANC-1 tumors = conditions: PANC-1 xenograft

T1 sequence (P40763 2-770 limits assumed): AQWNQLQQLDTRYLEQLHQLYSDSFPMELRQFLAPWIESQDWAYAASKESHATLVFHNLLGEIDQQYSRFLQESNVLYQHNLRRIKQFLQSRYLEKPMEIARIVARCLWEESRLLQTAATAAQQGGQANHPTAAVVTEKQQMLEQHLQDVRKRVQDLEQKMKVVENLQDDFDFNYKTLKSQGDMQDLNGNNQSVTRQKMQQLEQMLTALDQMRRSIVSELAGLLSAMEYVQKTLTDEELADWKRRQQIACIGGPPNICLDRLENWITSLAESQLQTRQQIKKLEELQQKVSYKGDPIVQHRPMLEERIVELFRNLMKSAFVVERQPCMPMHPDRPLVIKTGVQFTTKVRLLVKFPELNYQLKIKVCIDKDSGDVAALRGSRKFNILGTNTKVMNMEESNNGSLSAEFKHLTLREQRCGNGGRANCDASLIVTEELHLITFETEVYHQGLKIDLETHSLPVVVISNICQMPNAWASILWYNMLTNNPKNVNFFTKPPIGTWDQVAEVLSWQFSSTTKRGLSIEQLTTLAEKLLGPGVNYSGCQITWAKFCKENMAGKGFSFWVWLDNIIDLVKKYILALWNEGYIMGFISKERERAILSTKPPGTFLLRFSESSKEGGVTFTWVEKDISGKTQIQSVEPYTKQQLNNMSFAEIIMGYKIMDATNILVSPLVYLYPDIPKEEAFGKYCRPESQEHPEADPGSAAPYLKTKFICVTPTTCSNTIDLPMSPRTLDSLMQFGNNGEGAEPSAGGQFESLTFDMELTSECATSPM

## SBT-100: 15 kDa camelid single domain antibody (VHH), SEQ ID NO: 1, binds both STAT3 and KRAS
KRAS
  KRAS GTPase activity (RLU): inhibited by increasing doses
Bx-PC3; Bx-PC3
  IC50: 2340 nM
Bx-PC3; Bx-PC3, 3 days, 6.7 uM
  % Inhibition in 3 days with SBT-100 (SEQ ID NO: 1) ug/ml or 6.7 uM): 90% (P < 0.001)
PANC-1; PANC-1
  IC50: 380 nM
PANC-1; PANC-1, 3 days, 6.7 uM
  % Inhibition in 3 days with SBT-100 (SEQ ID NO: 1) ug/ml or 6.7 uM): 85% (P < 0.001)
[1]
  Kd: 4.2 nM
MCF-7; MCF-7
  IC50: 990 nM
MCF-7; MCF-7, 3 days, 6.7 uM
  % Inhibition in 3 days with SBT-100 (SEQ ID NO: 1) ug/ml or 6.7 uM): 93% (P < 0.001)
ENBOV (Ebola) in HFF
  Comment: Inhibits Ebola virus replication
  EC50: 2560 nM
Phosphorylated STAT3
  Binding of phosphorylated STAT3 from cell lysates: binding
HT-1080; HT-1080
  IC50: 2130 nM
HT-1080; HT-1080, 3 days, 6.7 uM
  % Inhibition in 3 days with SBT-100 (SEQ ID NO: 1) ug/ml or 6.7 uM): 86% (P < 0.001)
TC83 in U87MG
  Comment: Inhibits Venezuelan Equine
  EC50: 2530 nM
BT474; BT474
  IC50: 1680 nM
BT474; BT474, 3 days, 6.7 uM
  % Inhibition in 3 days with SBT-100 (SEQ ID NO: 1) ug/ml or 6.7 uM): 93% (P < 0.001)
[2]
  Cell toxicity: No cell toxicity was observed
[2]; 100 μg/ml, 12, 24, and 48-hour time points
  Suppression of VEGF protein production: > 99%
[3]
  Levels of tSTAT3, pSTAT3 and PD-L1: reduced levels
MDA-M-453; MDA-M-453
  IC50: 1190 nM
MDA-M-453; MDA-M-453, 3 days, 6.7 uM
  % Inhibition in 3 days with SBT-100 (SEQ ID NO: 1) ug/ml or 6.7 uM): 64% (P < 0.001)
[4]
  Biological half-life: 12-24 hours
12-Lipoxygenase
  Binding to irrelevant antigen: does not bind
TC83 in BE3M27
  Comment: Inhibits Venezuelan Equine
  EC50: 5940 nM
TC83 in HeLa
  Comment: Inhibits Venezuelan Equine
  EC50: 665 nM
[5]; SJSA-1, IFN-γ stimulation
  Decrease of B7-H3 cell surface expression: approximately 3 fold
  Decrease of OX-2 cell surface expression: approximately 4 fold
  Decrease of PD-L1 cell surface expression: approximately 4 fold
[5]; within 24-48 hours
  Inhibition of PD-L1 cell surface expression: 10 fold
EAU mice; day 15, optic nerve head and vitreous
  Optical Coherence Tomography (OCT): reduced recruitment of inflammatory cells
EAU mice; day 18
  IL-17 secreting pathogenic Th17 cells (intracellular cytokine staining, FACS): significant reduction
EAU mice; injected into the eye, day 15 and 18
  EAU clinical scores by fundoscopy: decreased
EAU mice; mouse, in vivo
  Electroretinography (ERG): improved visual function
PANC-1 tumors
  Deaths and weight loss: No treated mice died or had any weight loss
PANC-1 tumors; intraperitoneal for 14 days, Day 12
  % Inhibition of Control, Day 12: 20.7%
PANC-1 tumors; intraperitoneal for 14 days, Day 15
  % Inhibition of Control, Day 15: 27.29%
PANC-1 tumors; intraperitoneal for 14 days, Day 19
  % Inhibition of Control, Day 19: 18.37%
PANC-1 tumors; intraperitoneal for 14 days, Day 22 (end of the study)
  % Inhibition of Control, Day 22: 19.17%
Mouse brain, staining in neurons and glial cells
  Time to cross the BBB: 15 min
Once IP 5 mg/kg, fifteen minutes, mice with MDA-MB-231 tumors
  Crossing of the blood brain barrier by IHC: crosses the blood brain barrier
